Laboratory results as given in US9987296B2, “Compositions including anthocyanin or anthocyanidin for the prevention or treatment of Articular cartilage-associated conditions” (priority 2008, dated 2018).
Entries after “also recorded” stand apart in the source; their conditions may differ.

Legend:
[1] = test system: Human articular chondrocytes; assay: MTT assay; format: cell-based; conditions: human articular chondrocytes in culture, 96 hours
Procedure: (§1) Chondrocytes were isolated from non-arthritic regions of adult human articular cartilage (N=3 donors) and expanded in tissue culture flasks in DMEM supplemented with 10% calf serum.
The following compounds were provided by Chromadex, Inc. and tested from 1 uM to 500 uM:
Human articular chondrocytes were seeded in 96-well culture trays at a density of 5000 cells/well and incubated with the selected concentration of the anthocyanin for 4 days. At the end of the 4 day period, fresh MTT (3(4,5-Dimethylthiazol-2-yl)-2,5-diphenyltetrazolium bromide) was made in PBS and filter sterilized. MTT (25 ul per well) was added to the cell culture and incubated for 5 hours in the CO2 incubator at 37° C. Yellow MIT is reduced to purple formazan in living cells. The supernatant from each well was removed, and 200 Ill of DMSO was added. A multi-channel pipette was used to dissolve crystals. The microplate was placed back into the incubator at 37° C. for 5 min. Formazan levels in each well were read using a spectrophotometer at 550 nm wavelength.

[2] = test system: Human articular chondrocytes; assay: Cell viability (calcein AM / ethidium homodimer staining); format: cell-based; conditions: 96 hours
Description: as §1
At higher concentrations, the color of the anthocyanin interfered with the spectrophotometer reading; therefore, cell viability was additionally measured with calcein staining as follows: Live and dead cells were simultaneously viewed in situ with a confocal microscope (LSM 510; Zeiss, Wetzlar, Germany), using a fluorescent double stain. Calcein AM (1 uM; Invitrogen, Carlsbad, Calif.), a fluorescein derivative that is metabolized by nonspecific esterase present in viable cells, was used to stain live cells. The use of 8 uM ethidium homodimer (Invitrogen), a nucleic acid stain that is excluded by intact cell membranes, enabled visualization of the nuclei of dead cells. After 96-hour exposure to the appropriate concentration of anthocyanins, chondrocytes were cultured in DMEM supplemented with Calcein AM and ethidium homodimer for 45 minutes. Live and dead cells were counted using an automated image analysis script written in Matlab (MathWorks, Natick, Mass.) to measure percentage cell viability.

[3] = test system: bovine cartilage explants; assay: Matrix synthesis (35S uptake) in bovine cartilage explants; format: cell-based
[4] = test system: bovine cartilage explants; assay: Mucopolysaccharide production (35 Sulfur uptake) in bovine cartilage explants; format: cell-based
Procedure: Bovine cartilage explants were placed in culture including 10% FCS and Vitamin C. IL-1 was added to a test population and IL-1 was not added to control. Explants were cultured for 24 hours. Kuromanin chloride was then added to each culture. Mucopolysaccharides were measured using radioactive 35 Sulfur uptake.

[5] = test system: rodent pancreatic beta-cells; conditions: in culture, with 4 and 10 mM glucose; cited from earlier work
[6] = test system: bovine chondrocytes; assay: Matrix synthesis rate (35S) of bovine chondrocytes in alginate beads; format: cell-based; conditions: 100 uM with TGF-β 10 ng/mL, 24 hours
Procedure: Chondrocytes were isolated from weight-bearing regions of young (18-30 months old) bovine femoral condyles. Primary cells were obtained from 3 different animals and suspended in beads of 2% alginate. The alginate beads were precultured in DMEM supplemented with 10% calf serum for 48 hours. Before the experiments, the chondrocytes were serum-starved overnight with 0.1% serum to reduce the effect of serum and to reduce anabolic activity to baseline.
For each treatment condition, 10 millicuries of ^35S was added to each well and incubated for the appropriate duration. At the appropriate harvest time point, each well was then washed extensively with PBS (5-6 times with 500 uL, of PBS), before trypsin and EDTA was added to dissolve alginate. After 20-30 minutes, the dissolved gels and released cells were transferred into 1.5 ml Eppendorf tubes with 150 uL, of calf serum (to promote pellet formation) and the cells were centrifuged at 2000 rpm for 5 minutes. The supernatant was removed via pipette without disturbing the cell pellet. The remaining cell and supernatant (approximately 300 ul) was then mixed with 500 uL of PBS and transferred to scintillation vials, to which 5 ml of scintillation fluid was dispensed. Each scintillation vial was capped, thoroughly vortexed and then placed in a gamma counter to measure gamma radiation emission for each sample. Each sample was measured for 5 minutes.

[7] = cited from earlier work
[8] = in vitro; cited from earlier work
[9] = test system: TGF-β; assay: TGF-β by ELISA after exposure of fibroblast cells to dextrose; format: cell-based; conditions: fibroblasts
Procedure: (§2) For completeness, the relationship between a saccharide (dextrose) and TGF-β was also examined. Fibroblasts were treated with varying amounts of dextrose and measured for the release of TGF-β. […] It appeared that 0.5% glucose provided the greatest proliferation of fibroblasts.

[10] = test system: fibroblast cells; assay: Fibroblast cell proliferation; format: cell-based; conditions: for cell proliferation: fibroblasts
Procedure: as §2

Oc1cc(O)c2cc(O)c(-c3ccc(O)c(O)c3)[o+]c2c1 [Cyanidin chloride]
non-toxic concentration [1]: 100 µM | cell viability ([2]; 500 uM): completely reducing cell viability | toxicity relative to the other compounds tested ([2]; concentrations above 100 uM up to 500 uM): most toxic | chondroprotective activity, greater than under low glucose ([3]; higher glucose conditions (5%) as printed): ~20% | chondroprotective activity ([3]; low glucose levels (2.5%) as printed): some chondroprotective activity

OC[C@H]1O[C@@H](Oc2cc3c(O)cc(O)cc3[o+]c2-c2ccc(O)c(O)c2)[C@H](O)[C@@H](O)[C@@H]1O.[Cl-] [Kuromanin chloride]
production of mucopolysaccharides ([4]; bovine cartilage preincubated with IL-1): increased production of mucopolysaccharides; also recorded: increase of mucopolysaccharide | production of mucopolysaccharides ([4]; control bovine cartilage explants, no IL-1, listed as kuromanin): increase of mucopolysaccharide | production of mucopolysaccharides ([4]; control bovine cartilage explants, no IL-1, listed as kuromanin chloride): increased production of mucopolysaccharides | insulin secretion [5]: stimulate insulin secretion | matrix synthesis rates (growth factor synergy) [6]: synergistic effect on matrix synthesis rates | non-toxic concentration [1]: 100 µM | half-life [7]: 90 to 120 min | oxygen radical absorbing capacity compared to Trolox (Vitamin E) [8]: 3.5 times

O=C[C@H](O)[C@@H](O)[C@H](O)[C@H](O)CO [glucose]
presence of TGF-β ([9]; higher amounts of glucose): decreased the presence of TGF-β | TGF-β expression ([9]; varying amounts of dextrose): does not increase TGF-β expression | concentration providing the greatest proliferation of fibroblasts [10]: 0.5% | cell proliferation ([10]; higher concentrations of glucose): did not | cell proliferation ([10]; lower concentrations of glucose): increased cell proliferation
